Values quoted from earlier work in patent US12174205B2, “Phosphatidylethanolamine-specific probes” (Northwestern University, priority 2014, dated 2024).

Settings: at micromolar concentration: membrane distortion, PE translocation

Substance: cinnamycin
- cytotoxicity: exhibit cytotoxicity
